Laboratory results published in patent publication US20260256909A1, “COMBINATION OF A BTN3A ACTIVATING ANTIBODY, A BCL2 INHIBITOR AND HYPOMETHYLATING AGENT FOR USE IN TREATING CANCER” (Imcheck Therapeutics, priority 2022, published 2026).

What was measured:
Assay type in all cases: cell-based, human
Vγ9Vδ2 T cells [1] = experiment: Survival of Vγ9Vδ2 T cells in HD-PBMC (Caspase3/7 and dead cell marker, flow cytometry); conditions: for reduced survival of Vγ9Vδ2 T cells compared to no Venetoclax condition: simultaneous treatment with ICT01 1 μg/mL
Protocol: The effect of ICT01 on the survival of Vγ9Vδ2 T cells upon treatment with Bcl-2 family member inhibitors was assessed in Peripheral Blood Mononuclear Cells from Healthy Donors (HD-PBMC) using the apoptotic marker Caspase3/7 and a dead cell marker in flow cytometry analysis.
(§1) Peripheral Blood Mononuclear Cells (PBMC) were isolated by Ficoll density gradient centrifugation of peripheral blood (EDTA-buffy coats) from healthy donors (HD, n=4-6), cultured in PBMC medium (RPMI 1640 Medium supplemented with 10% Fetal Bovine Serum (FBS), 1% Penicillin/Streptomycin and 1 mM Sodium Pyruvate) and treated with ICT01 or its isotype control (hIgG1S) used at 1 μg/mL in the presence or absence of increasing concentrations of Venetoclax (0-0.1 μM), 5-Azacytidine (0-0.4 μM) or the combination, or ABT-737 (0-1.875 μM), Navitoclax (0-1.875 μM) or MIK665 (0-1.875 μM). Cells were harvested on day 2, centrifuged at 1800 rpm for 5 minutes and then incubated 10 minutes at room temperature (RT) with 25 μl of FcR blocking reagent (Miltenyi Biotec) before adding 25 μL of the following antibody mix prepared in PBS+2% FBS+2 mM EDTA (FACS buffer): anti-CD4-BUV395, CD56-BV421, Vd2-PE, CD3-PE-CF594 and CD8-A700 antibodies for the identification of immune subsets, anti-CD25-BV650 and CD69-APC antibodies were added to monitor activation status of Vγ9Vδ2 T cells, and a viability marker (LIVE/DEAD™ Fixable Dead Cell Stain) was added to distinguish live from dead cells. Cells were incubated 20 minutes at room temperature (RT) and washed 2 times with FACS buffer. A Caspase3/7 Green detection reagent (ThermoFisher) was added to determine apoptosis and cells were incubated for 30 minutes at RT before flow cytometry analysis.
In a similar experiment, freshly isolated PBMC were stimulated with ICT01 or its isotype control hIgG1S for 1 day prior to a 2 day-treatment with Venetoclax (FIG. 3a). The number of live Vγ9Vδ2 T cells was assessed by flow cytometry at the end of the incubation time.

Vγ9Vδ2 T cells [2] = experiment: Phenotypic activation of Vγ9Vδ2 T cells in HD-PBMC (CD69/CD25 expression, flow cytometry); conditions: for activation of Vγ9Vδ2 T cells by ICT01 (CD25 expression): HD-PBMC treated one day with Venetoclax (0-0.1 μM), 5-Azacytidine (0-0.4 μM) prior to ICT01 for two days; for effect on the ICT01-induced upregulation of CD25 by Vγ9Vδ2 T cells: day 4, together with ICT01 1 μg/mL, Venetoclax 0-0.1 μM, 5-Azacytidine 0-0.4 μM
Protocol: as §1
ICT01-induced phenotypic activation of Vγ9Vδ2 T cells is indicated by the upregulation of CD25. Therefore, human PBMC from healthy donors (HD, n=6) were cultured with ICT01 or its isotype control (hIgG1S) used at 1 μg/mL in the presence or absence of increasing concentrations of Venetoclax (0-0.1 μM), 5-Azacytidine (0-0.4 μM) or the combination in PBMC medium (RPMI 1640 Medium supplemented with 10% FBS, 1% Penicillin/Streptomycin and 1 mM Sodium Pyruvate). Cells were harvested on day 4, centrifuged at 1800 rpm for 5 minutes and then incubated 10 minutes at room temperature (RT) with 25 μl of FcR blocking reagent (Miltenyi Biotec) before adding 25 μL of the following antibody mix prepared in PBS+2% FBS+2 mM EDTA (FACS buffer): anti-CD4-BV650, CD56-FITC, Vd2-PE, CD3-PE-CF594 and CD8-A700 antibodies for the identification of immune subsets, an anti-CD25-BV650 antibody was added to monitor activation status, and a viability marker (LIVE/DEAD™ Fixable Dead Cell Stain) was added to distinguish live from dead cells. Cells were incubated 20 minutes at 4° C. and washed 2 times in FACS buffer before flow cytometry analysis.
In a similar experiment, freshly isolated healthy donor-derived PBMC were treated with increasing concentrations of Venetoclax (0-0.1 μM), 5-Azacytidine (0-0.4 μM) or the combination for one day prior to stimulation with ICT01 or its isotype control hIgG1S for two days. Again, activation of Vγ9Vδ2T cells by ICT01 was unaffected by Venetoclax and 5-Azacytidine treatment, as indicated by the similar induction of CD25 expression in all conditions tested (Figure b).

Vγ9Vδ2 T cells [3] = experiment: ICT01-induced IFNγ production by Vγ9Vδ2 T cells in HD-PBMC (intracellular staining); conditions: for effect on ICT01-induced IFNγ production by Vγ9Vδ2 T cells: single agent, independent of IL2
Protocol: To evaluate the effect of Venetoclax and 5-Azacytidine on cytokine production, freshly isolated human PBMC from healthy donors (HD, n=6) were cultured in PBMC medium (RPMI 1640 Medium supplemented with 10% Fetal Bovine Serum (FBS), 1% Penicillin/Streptomycin and 1 mM Sodium Pyruvate) and treated with ICT01 or its isotype control (hIgG1S) used at 1 μg/mL in the presence or absence of increasing concentrations of Venetoclax (0-0.1 μM), 5-Azacytidine (0-0.4 μM) or the combination. Half of the cells were additionally treated with 50 IU/mL IL2. Golgi Stop was added after 6-8 hours of co-culture and cells were harvested 16 h later, centrifuged at 1800 rpm for 5 minutes and then incubated 10 minutes at room temperature (RT) with 25 μl of FcR blocking reagent (Miltenyi Biotec) before adding 25 μL of the following antibody mix prepared in PBS+2% FBS+2 mM EDTA (FACS buffer): anti-CD4-BV650, Vγ9-FITC, CD3-PE-CF594, CD56-PE-Vio770 and CD8-AF700 antibodies for the identification of immune subsets, and a viability marker (LIVE/DEAD™ Fixable Dead Cell Stain) was added to distinguish live from dead cells. After 20 minutes, 100 μL of CytoFix solution (BD Bioscience) was added, and cells were incubated for 20 minutes at 4° C. 100 μL of Perm/Wash (BD Bioscience) were added, cells centrifuged and washed once in 200 μL Perm/Wash. After washing, cells were stained with anti-IFNγ-APC antibody for 30 minutes at 4° C., washed twice with Perm/Wash, and analyzed by flow cytometry.

[4] = 0.01 μM Venetoclax, HD-PBMC, 48 h
[5] = 0.1 μM Venetoclax, HD-PBMC, 48 h

Molecule	effect on the survival of Vγ9Vδ2 T cells (Vγ9Vδ2 T cells [1]; HD-PBMC, 48 h, 5-Azacytidine 0-0.4 μM)	activation of Vγ9Vδ2 T cells by ICT01 (CD25 expression) (Vγ9Vδ2 T cells [2])	effect on the ICT01-induced upregulation of CD25 by Vγ9Vδ2 T cells (Vγ9Vδ2 T cells [2]; HD-PBMC)	effect on ICT01-induced IFNγ production by Vγ9Vδ2 T cells (Vγ9Vδ2 T cells [3])	reduction of live cells (Vγ9Vδ2 T cells) compared to no Venetoclax condition (Vγ9Vδ2 T cells [1]; [4])	reduced survival of Vγ9Vδ2 T cells compared to no Venetoclax condition (Vγ9Vδ2 T cells [1]; [4])	reduction of live cells (Vγ9Vδ2 T cells) compared to no Venetoclax condition (Vγ9Vδ2 T cells [1]; [5])	reduced survival of Vγ9Vδ2 T cells compared to no Venetoclax condition (Vγ9Vδ2 T cells [1]; [5])	Venetoclax induced cell death of Vγ9Vδ2 T cells (Vγ9Vδ2 T cells [1]; PBMC stimulated with ICT01 for 1 day prior to a 2 day-treatment with Venetoclax, vs hIgG1S)	activation of Vγ9Vδ2 T cells: expression of CD69 and CD25 (Vγ9Vδ2 T cells [2]; HD-PBMC, 2 days, ICT01 1 μg/mL, compared to hIgG1S)	IFNγ production by Vγ9Vδ2 T cells (Vγ9Vδ2 T cells [3]; HD-PBMC activated with ICT01 (1 μg/mL) in presence of IL2 (50 IU/mL)) [%]	IFNγ production by Vγ9Vδ2 T cells (Vγ9Vδ2 T cells [3]; HD-PBMC activated with ICT01 alone (1 μg/mL), no IL2) [%]
Nc1ncn([C@@H]2O[C@H](CO)[C@@H](O)[C@H]2O)c(=O)n1 [5-Azacytidine, 4-amino-1-[(2R,3R,4S,5R)3,4-dihydroxy-5-(hydroxymethyl)oxolan-2-yl]-1,3,5-triazin-2-one]	no effect	unaffected	no effect	no effect	–	–	–	–	–	–	–	–
CC1(C)CCC(CN2CCN(c3ccc(C(=O)NS(=O)(=O)c4ccc(NCC5CCOCC5)c([N+](=O)[O-])c4)c(Oc4cnc5[nH]ccc5c4)c3)CC2)=C(c2ccc(Cl)cc2)C1 [Venetoclax, 4-[4-[[2-(4-chlorophenyl)-4,4-dimethylcyclohexen-1-yl]methyl]piperazin-1-yl]-N-[3-nitro-4-(oxan-4-ylmethylamino)phenyl]sulfonyl-2-(1H-pyrrolo[2,3-b]pyridin-5-yloxy)benzamide]	–	unaffected	no effect	no effect	~ 29%	~ 11%	~ 49%	~ 30%	–	–	–	–
ICT01: humanized BTN3A activating antibody of mAb 7.2, heavy chain SEQ ID NO: 4, light chain SEQ ID NO: 6, silent IgG1 L247F/L248E/P350S	–	–	–	–	–	–	–	–	significantly reduced	increased expression of CD69 and CD25	89.1	30.4
